According to ChEMBL document CHEMBL1201862, “PubChem BioAssay data set” (2004):
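Grown in 96-well plates, cells were treated for 48 hours with each compound at five concentrations. Insufficient inhibition: endpoint recorded as highest concentration tested. At the GI50, growth is halved.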 Activity calls are given as the source filed them. No stated cut-off is given here; in the data, active = GI50 up to about 1.1 µM and inactive = higher.

Tests used:
Test in all cases: growth of human tumour cells (NCI), 48 h
HCT-116 = test system: HCT-116
RXF 393 = test system: RXF 393
SK-MEL-28 = test system: SK-MEL-28
KM12 = test system: KM12
HCT-15 = test system: HCT-15
SK-MEL-5 = test system: SK-MEL-5
OVCAR-3 = test system: OVCAR-3
HCC 2998 = test system: HCC 2998
Malme-3M = test system: Malme-3M
MCF7 = test system: MCF7
MDA-MB-435 = test system: MDA-MB-435
TK-10 = test system: TK-10
A498 = test system: A498
SW-620 = test system: SW-620
SNB-19 = test system: SNB-19
UACC-257 = test system: UACC-257
BT-549 = test system: BT-549
SK-OV-3 = test system: SK-OV-3
SR = test system: SR
UO-31 = test system: UO-31
CAKI-1 = test system: CAKI-1
SNB-75 = test system: SNB-75
COLO 205 = test system: COLO 205
UACC-62 = test system: UACC-62
MOLT-4 = test system: MOLT-4
U-251 = test system: U-251
OVCAR-5 = test system: OVCAR-5
SF-295 = test system: SF-295
OVCAR-4 = test system: OVCAR-4
DU-145 = test system: DU-145
NCI/ADR-RES = test system: NCI/ADR-RES
HOP-92 = test system: HOP-92
EKVX = test system: EKVX
M14 = test system: M14
NCI-H522 = test system: NCI-H522
SF-268 = test system: SF-268
MDA-MB-231 = test system: MDA-MB-231
786-0 = test system: 786-0
Hs-578T = test system: Hs-578T
HOP-62 = test system: HOP-62
SN12C = test system: SN12C
CCRF-CEM = test system: CCRF-CEM
A549 = test system: A549
K562 = test system: K562
ACHN = test system: ACHN
OVCAR-8 = test system: OVCAR-8
LOX IMVI = test system: LOX IMVI
MDA-N = test system: MDA-N
IGROV-1 = test system: IGROV-1
NCI-H226 = test system: NCI-H226
T47D = test system: T47D
RPMI-8226 = test system: RPMI-8226
HT-29 = test system: HT-29
NCI-H23 = test system: NCI-H23
PC-3 = test system: PC-3
HL-60 = test system: HL-60
NCI-H460 = test system: NCI-H460
SK-MEL-2 = test system: SK-MEL-2
SF-539 = test system: SF-539

Compound: Nc1ccccc1/N=N/c1c(S(=O)(=O)O)cc2cc(S(=O)(=O)O)cc(O)c2c1O
- GI50 (HCT-116): 26.2 µM (inactive)
- GI50 (RXF 393): > 100 µM (inactive)
- GI50 (SK-MEL-28): > 100 µM (inactive)
- GI50 (KM12): > 100 µM (inactive)
- GI50 (HCT-15): > 100 µM
- GI50 (SK-MEL-5): > 100 µM (inactive)
- GI50 (OVCAR-3): > 100 µM (inactive)
- GI50 (HCC 2998): > 100 µM (inactive)
- GI50 (Malme-3M): > 100 µM (inactive)
- GI50 (MCF7): > 100 µM (inactive)
- GI50 (MDA-MB-435): > 100 µM (inactive)
- GI50 (TK-10): > 100 µM (inactive)
- GI50 (A498): > 100 µM (inactive)
- GI50 (SW-620): > 100 µM (inactive)
- GI50 (SNB-19): > 100 µM (inactive)
- GI50 (UACC-257): > 100 µM (inactive)
- GI50 (BT-549): > 100 µM (inactive)
- GI50 (SK-OV-3): > 100 µM (inactive)
- GI50 (SR): > 100 µM (inactive)
- GI50 (UO-31): > 100 µM (inactive)
- GI50 (CAKI-1): > 100 µM (inactive)
- GI50 (SNB-75): > 100 µM (inactive)
- GI50 (COLO 205): > 100 µM (inactive)
- GI50 (UACC-62): > 100 µM (inactive)
- GI50 (MOLT-4): > 100 µM (inactive)
- GI50 (U-251): > 100 µM (inactive)
- GI50 (OVCAR-5): > 100 µM (inactive)
- GI50 (SF-295): > 100 µM (inactive)
- GI50 (OVCAR-4): > 100 µM (inactive)
- GI50 (DU-145): > 100 µM (inactive)
- GI50 (NCI/ADR-RES): > 100 µM (inactive)
- GI50 (HOP-92): > 100 µM (inactive)
- GI50 (EKVX): > 100 µM (inactive)
- GI50 (M14): > 100 µM (inactive)
- GI50 (NCI-H522): > 100 µM (inactive)
- GI50 (SF-268): > 100 µM (inactive)
- GI50 (MDA-MB-231): > 100 µM (inactive)
- GI50 (786-0): 45.7 µM (inactive)
- GI50 (Hs-578T): > 100 µM (inactive)
- GI50 (HOP-62): > 100 µM (inactive)
- GI50 (SN12C): 11.2 µM (inactive)
- GI50 (CCRF-CEM): > 100 µM (inactive)
- GI50 (A549): > 100 µM (inactive)
- GI50 (K562): > 100 µM (inactive)
- GI50 (ACHN): > 100 µM (inactive)
- GI50 (OVCAR-8): > 100 µM (inactive)
- GI50 (LOX IMVI): > 100 µM (inactive)
- GI50 (MDA-N): 32.4 µM (inactive)
- GI50 (IGROV-1): > 100 µM (inactive)
- GI50 (NCI-H226): > 100 µM (inactive)
- GI50 (T47D): > 100 µM (inactive)
- GI50 (RPMI-8226): > 100 µM (inactive)
- GI50 (HT-29): > 100 µM (inactive)
- GI50 (NCI-H23): > 100 µM (inactive)
- GI50 (PC-3): > 100 µM (inactive)

Compound: CC1OC(O[C@H]2CC[C@]3(C)[C@H]4CC=C5[C@@H]6[C@@H](C)[C@H](C)CC[C@]6(C(=O)O)CC[C@@]5(C(=O)O)[C@]4(C)CC[C@H]3C2(C)C)C(O)C(O)C1O (some centres undefined)
- GI50 (HCT-116): > 75 µM (inactive)
- GI50 (RXF 393): > 75 µM (inactive)
- GI50 (KM12): > 75 µM (inactive)
- GI50 (HCT-15): > 75 µM
- GI50 (SK-MEL-5): > 75 µM (inactive)
- GI50 (OVCAR-3): > 75 µM (inactive)
- GI50 (HCC 2998): > 75 µM (inactive)
- GI50 (MCF7): > 75 µM (inactive)
- GI50 (HL-60): 24.8 µM (inactive)
- GI50 (MDA-MB-435): > 75 µM (inactive)
- GI50 (TK-10): > 75 µM (inactive)
- GI50 (A498): > 75 µM (inactive)
- GI50 (SW-620): > 75 µM (inactive)
- GI50 (SNB-19): > 75 µM (inactive)
- GI50 (UACC-257): > 75 µM (inactive)
- GI50 (BT-549): > 75 µM (inactive)
- GI50 (SK-OV-3): > 75 µM (inactive)
- GI50 (SR): > 75 µM (inactive)
- GI50 (UO-31): > 75 µM (inactive)
- GI50 (NCI-H460): 50.1 µM (inactive)
- GI50 (CAKI-1): > 75 µM (inactive)
- GI50 (SNB-75): > 75 µM (inactive)
- GI50 (SK-MEL-2): > 75 µM (inactive)
- GI50 (COLO 205): > 75 µM (inactive)
- GI50 (UACC-62): > 75 µM (inactive)
- GI50 (MOLT-4): > 75 µM (inactive)
- GI50 (U-251): > 75 µM (inactive)
- GI50 (OVCAR-5): > 75 µM (inactive)
- GI50 (SF-295): > 75 µM (inactive)
- GI50 (OVCAR-4): > 75 µM (inactive)
- GI50 (DU-145): > 75 µM (inactive)
- GI50 (NCI/ADR-RES): > 75 µM (inactive)
- GI50 (HOP-92): 38.3 µM (inactive)
- GI50 (SF-539): > 75 µM (inactive)
- GI50 (M14): > 75 µM (inactive)
- GI50 (NCI-H522): > 75 µM (inactive)
- GI50 (SF-268): > 75 µM (inactive)
- GI50 (MDA-MB-231): > 75 µM (inactive)
- GI50 (786-0): > 75 µM (inactive)
- GI50 (Hs-578T): > 75 µM (inactive)
- GI50 (HOP-62): > 75 µM (inactive)
- GI50 (SN12C): > 75 µM (inactive)
- GI50 (CCRF-CEM): 28.8 µM (inactive)
- GI50 (K562): > 75 µM (inactive)
- GI50 (ACHN): > 75 µM (inactive)
- GI50 (OVCAR-8): > 75 µM (inactive)
- GI50 (LOX IMVI): > 75 µM (inactive)
- GI50 (MDA-N): > 75 µM (inactive)
- GI50 (T47D): > 75 µM (inactive)
- GI50 (NCI-H23): > 75 µM (inactive)
- GI50 (PC-3): > 75 µM (inactive)

Compound: Cc1nnc2n1-c1ccccc1N(Cc1ccccc1)CC2
- GI50 (HCT-116): 46 µM (inactive)
- GI50 (RXF 393): 34.8 µM (inactive)
- GI50 (SK-MEL-28): > 100 µM (inactive)
- GI50 (KM12): 81.1 µM (inactive)
- GI50 (HCT-15): 45.7 µM
- GI50 (SK-MEL-5): 38.2 µM (inactive)
- GI50 (OVCAR-3): 39.6 µM (inactive)
- GI50 (HCC 2998): 79.4 µM (inactive)
- GI50 (Malme-3M): 85.1 µM (inactive)
- GI50 (MCF7): 37.4 µM (inactive)
- GI50 (HL-60): 23.6 µM (inactive)
- GI50 (MDA-MB-435): 51.4 µM (inactive)
- GI50 (TK-10): 82.6 µM (inactive)
- GI50 (A498): 93.8 µM (inactive)
- GI50 (SW-620): 17.2 µM (inactive)
- GI50 (SNB-19): > 100 µM (inactive)
- GI50 (UACC-257): 63.1 µM (inactive)
- GI50 (BT-549): 22.1 µM (inactive)
- GI50 (SK-OV-3): > 100 µM (inactive)
- GI50 (SR): 30.4 µM (inactive)
- GI50 (UO-31): 34.5 µM (inactive)
- GI50 (NCI-H460): > 100 µM (inactive)
- GI50 (CAKI-1): 38 µM (inactive)
- GI50 (SNB-75): 52.6 µM (inactive)
- GI50 (SK-MEL-2): 80.7 µM (inactive)
- GI50 (COLO 205): 38.1 µM (inactive)
- GI50 (UACC-62): 39.6 µM (inactive)
- GI50 (MOLT-4): 23.8 µM (inactive)
- GI50 (U-251): 50 µM (inactive)
- GI50 (OVCAR-5): > 100 µM (inactive)
- GI50 (SF-295): 75 µM (inactive)
- GI50 (OVCAR-4): 71.9 µM (inactive)
- GI50 (DU-145): 70.3 µM (inactive)
- GI50 (NCI/ADR-RES): 13.8 µM (inactive)
- GI50 (HOP-92): 9.55 µM (inactive)
- GI50 (EKVX): 34.2 µM (inactive)
- GI50 (SF-539): > 100 µM (inactive)
- GI50 (M14): 63.7 µM (inactive)
- GI50 (SF-268): 58.9 µM (inactive)
- GI50 (MDA-MB-231): > 100 µM (inactive)
- GI50 (786-0): 87.7 µM (inactive)
- GI50 (Hs-578T): 58.9 µM (inactive)
- GI50 (HOP-62): > 100 µM (inactive)
- GI50 (SN12C): 58.7 µM (inactive)
- GI50 (CCRF-CEM): 17.6 µM (inactive)
- GI50 (A549): 75.7 µM (inactive)
- GI50 (K562): 20.3 µM (inactive)
- GI50 (ACHN): 49.5 µM (inactive)
- GI50 (OVCAR-8): 56 µM (inactive)
- GI50 (LOX IMVI): 55.8 µM (inactive)
- GI50 (MDA-N): 46.2 µM (inactive)
- GI50 (IGROV-1): 50.6 µM (inactive)
- GI50 (NCI-H226): 46.8 µM (inactive)
- GI50 (T47D): 41.2 µM (inactive)
- GI50 (RPMI-8226): 11.4 µM (inactive)
- GI50 (HT-29): 40.1 µM (inactive)
- GI50 (NCI-H23): 60 µM (inactive)
- GI50 (PC-3): 49.8 µM (inactive)
